Reference: patent US4064277A, “Method for processing soybeans” (Kikkoman Shoyu Co., Ltd., priority 1974, dated 1977)

How the values were obtained:
β-glycosidase [1] = test: minimum effective amount of competitive inhibitor, operation of Example 1 repeated; conditions: based on the weight of the whole soybeans
Experimental: 40 Grams of whole soybeans were swelled by soaking at room temperature for 8 hours in 80 ml. of an aqueous solution containing glucono-1,5-lactone as a competitive inhibitor for β-glycosidase in such proportion, based on the weight of the soybeans, as shown in Table 1. In this case, two thirds times the amount of said aqueous solution was incorporated into the soybeans. To the soaked soybeans was added 320 ml. of hot water (at above 95° C.), and the resulting mixture was treated by means of a homogenizer to prepare a ground suspension, which was then filtered by use of a 100-mesh sieve to obtain an extract. The temperature at the time of the homogenization treatment effected with addition of said hot water was above 90° C., and, by said treatment, β-glycosidase contained in the soybeans was completely inactivated, and the mixture was freed from beany odor (grassy smell). The thus obtained extract (soybean milk) was subjected to organoleptic test by drinking to obtain such results as shown in Table 1. The aforesaid operation was repeated, except that the glucono-1,5-lactone was replaced by each of the competitive inhibitors shown in Table 2, and the minimum effective amount of the competitive inhibitor based on the weight of the whole soybeans was calculated. The same operation as in Example 1 was effected, except that the glucono-1,5-lactone was replaced by each of the competitive inhibitors set forth in Table 3, and the minimum effective amount of the competitive inhibitor based on the weight of the whole soybeans was calculated.

β-glycosidase [2] = test: β-glycosidase inhibitory ratio in soaked whole soybeans (p-nitrophenyl-β-D-glucopyranoside substrate, 420 mμ); format: biochemical; conditions: for β-Glycosidase inhibitory ratio (%): soaking 8 hours at room temperature
Experimental: 40 Grams of whole soybeans were swelled by soaking at room temperature for 8 hours in 80 ml. of an aqueous solution containing glucono-1,5-lactone as a competitive inhibitor for β-glycosidase in such proportion, based on the weight of the soybeans, as shown in Table 1. In this case, two thirds times the amount of said aqueous solution was incorporated into the soybeans. To the soaked soybeans was added 320 ml. of hot water (at above 95° C.), and the resulting mixture was treated by means of a homogenizer to prepare a ground suspension, which was then filtered by use of a 100-mesh sieve to obtain an extract. The temperature at the time of the homogenization treatment effected with addition of said hot water was above 90° C., and, by said treatment, β-glycosidase contained in the soybeans was completely inactivated, and the mixture was freed from beany odor (grassy smell).
^2) The β-glycosidase inhibitory ratio (%) was measured in the
following manner: At the time of soybean soaking, in the above-mentioned
operation, 0.1 weight % based on the weight of the soybeans of
p-nitrophenyl-β-D-glucopyranoside was absorbed together with the
soaking solution into the soybeans. After lapse of the same soaking perio
as mentioned previously, the soybeans were boiled in water for 5 minutes.
Subsequently, the soybeans were soaked in a 2.5M sodium carbonate solutio
to elute p-nitrophenol which had been liberated in the soybeans due to th
action of β-glycosidase. The developed yellow color was determined b
using electrophotometer (420 mμ), and the ratio (%) of
β-glycosidase activity remaining in each sample was subtracted from
100%, assuming as 100% the β-glycosidase activity in the sample of
Run No. 1, which had not been incorporated with glucono-1,5-lactone, to
obtain a value. This value was decided as the inhibitory ratio (%).

`O=C1O[C@H](CO)[C@H](O)[C@H](O)[C@H]1O` [Galactono-1,5-lactone, galactono-1,5-lactone] was tested, and the “Minimum effective amount (weight %)” value (β-glycosidase [1]) was 20 weight %.
With `OC[C@H]1NC(O)[C@H](O)[C@@H](O)[C@@H]1O` (stereo partly drawn) [Nojirimycin] the “Minimum effective amount (weight %)” value (β-glycosidase [1]) was 0.01 weight %.
`C[C@@H]1OC(=O)[C@@H](O)[C@H](O)[C@@H]1O` [Fucono-1,5-lactone, fucono-1,5-lactone] was tested, and the “Minimum effective amount (weight %)” value (β-glycosidase [1]) was 0.02 weight %.
In the case of `OC[C@H]1OC(O)[C@H](O)[C@@H](O)[C@@H]1O` (stereo partly drawn) [Glucose, glucose], the “Minimum effective amount (weight %)” value (β-glycosidase [1]) is reported as 40 weight %.
With `O=C1O[C@H](CO)[C@@H](O)[C@H](O)[C@H]1O` [Glucono-1,5-lactone, glucono-1,5-lactone] the “β-Glycosidase inhibitory ratio (%)” value (β-glycosidase [2]; Run No. 2: amount used 0.0015 weight %, incorporated into soybeans 0.0010 weight %) was 13%, the “β-Glycosidase inhibitory ratio (%)” value (β-glycosidase [2]; Run No. 3: amount used 0.015 weight %, incorporated into soybeans 0.010 weight %) was 49% and the “β-Glycosidase inhibitory ratio (%)” value (β-glycosidase [2]; Run No. 4: amount used 0.15 weight %, incorporated into soybeans 0.10 weight %) was 73%. The “β-Glycosidase inhibitory ratio (%)” value (β-glycosidase [2]; Run No. 5: amount used 1.5 weight %, incorporated into soybeans 1.0 weight %) was 90% and the “activity of β-glycosidase in the soybeans” value (β-glycosidase [2]; whole soybeans impregnated with 0.10 weight % or more, as aqueous solution) was “greatly inhibited”.
